Laboratory results from patent US20230181662A1, “USES OF ANTRODIA CINNAMOMEA EXTRACT IN MANUFACTURING PRODUCTS FOR REDUCING EXPRESSION AND TREATING ASSOCIATED DISEASES OF ANGIOTENSIN CONVERTING ENZYME 2” (priority 2020, published 2023).
“Also recorded” adds a separate entry of the source.

What follows are compounds tested against ACE-2 (Homo sapiens, UniProt Q9BYF1) (assay: ACE-2 enzyme activity assay (MCA based peptide substrate, fluorescence)). Conditions: 20 μg/mL each compound.
Sequence of ACE-2 (Q9BYF1 18-805, species assumed): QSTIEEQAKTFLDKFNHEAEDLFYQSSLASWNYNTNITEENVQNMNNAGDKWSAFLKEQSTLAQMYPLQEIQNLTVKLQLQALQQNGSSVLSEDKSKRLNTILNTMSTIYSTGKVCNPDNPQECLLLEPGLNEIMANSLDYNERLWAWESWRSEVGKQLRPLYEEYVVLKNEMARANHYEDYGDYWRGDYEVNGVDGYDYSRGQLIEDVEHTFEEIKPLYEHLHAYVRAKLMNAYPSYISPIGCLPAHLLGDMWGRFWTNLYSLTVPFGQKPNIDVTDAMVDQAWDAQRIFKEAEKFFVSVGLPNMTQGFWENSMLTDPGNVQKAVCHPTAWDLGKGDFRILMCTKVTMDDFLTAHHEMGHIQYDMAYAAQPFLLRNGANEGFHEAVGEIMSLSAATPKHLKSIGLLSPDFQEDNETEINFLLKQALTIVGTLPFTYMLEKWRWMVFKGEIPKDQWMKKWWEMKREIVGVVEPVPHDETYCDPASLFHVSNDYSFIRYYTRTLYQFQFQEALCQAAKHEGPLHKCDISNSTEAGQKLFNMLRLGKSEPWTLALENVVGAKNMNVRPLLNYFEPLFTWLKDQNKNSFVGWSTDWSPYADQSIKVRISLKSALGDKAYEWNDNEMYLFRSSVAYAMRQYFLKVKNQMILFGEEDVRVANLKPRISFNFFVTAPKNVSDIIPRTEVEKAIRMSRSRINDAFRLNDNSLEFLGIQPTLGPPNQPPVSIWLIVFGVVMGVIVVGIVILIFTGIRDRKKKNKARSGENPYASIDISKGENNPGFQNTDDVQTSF
Format: biochemical
For `C=C(CC[C@@H](C(=O)O)[C@H]1C[C@H](O)[C@@]2(C)C3=CC[C@H]4C(C)(C)[C@@H](O)CC[C@]4(C)C3=CC[C@]12C)C(C)C` [DSA, dehydrosulphurenic acid], the “inhibition of ACE-2 enzyme activity” value was “more than 30%”.

Same assay, conditions: 20 μg/mL each ingredient
In the case of `C=C(CCC(C)C1CCC2C3=C(C(=O)C(O)C21C)C1(C)CCC(O)C(C)C1CC3=O)C(C)C(=O)O` (stereo not shown) [Antcin H], the “inhibition ability on ACE-2 enzymatic activity” value (“inhibition ability” below) is reported as “had inhibition ability”.
For `C=C(CC[C@@H](C(=O)O)[C@H]1C[C@H](O)[C@@]2(C)C3=CC[C@H]4C(C)(C)[C@@H](O)CC[C@]4(C)C3=CC[C@]12C)C(C)C` [DSA, dehydrosulphurenic acid], the “inhibition ability” value was “stronger inhibition activity; also recorded: have ability of inhibition on ACE-2”.
For Antcin C, the “inhibition ability” value was “had inhibition ability”.
In the case of Antcin K, the “inhibition ability” value is reported as “stronger inhibition activity; also recorded: have ability of inhibition on ACE-2”.
`C=C(CC[C@@H](C(=O)O)[C@H]1CC[C@@]2(C)C3=CC[C@H]4C(C)(C)[C@@H](O)CC[C@]4(C)C3=CC[C@]12C)C(C)C` [DEA, dehydroeburicoic acid] was tested, and the “inhibition ability” value was “had inhibition ability; also recorded: have ability of inhibition on ACE-2”.
With `C=C(CC[C@@H](C)[C@H]1CC[C@H]2C3=C(C(=O)C[C@]12C)[C@@]1(C)CCC(=O)[C@@H](C)[C@@H]1CC3)C(C)C(=O)O` (stereo partly shown) [Antcin A] the “inhibition ability” value was “stronger inhibition activity”.
